The target in one test is memapsin 2 (Homo sapiens, UniProt P56817). The experiment in a line: Inhibition of memapsin 2 beta-secretase activity toward fluorogenic substrate FS-2. It counts as biochemical. The following applies: memapsin 2, pH 4, 37° C., 20 minutes pre-incubation, substrate FS-2; read-out: M2Ki. The method in brief:
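Memapsin 2 was preincubated with compound 20 min at pH 4, 37 °C, then reacted with fluorogenic substrate FS-2 (MCA-SEVNLDAEFK-DNP), an APP-derived Swedish-variant peptide. Inhibition was followed kinetically by fluorescence.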

The test system of test [1] is Aβ production in Chinese hamster ovary cells that over-express human APP695 with the London and Swedish mutations. Nature of the test: Cellular Aβ IC50 determination (Aβ40 sandwich ELISA). It counts as cell-based. The settings on record: Cricetulus griseus; Aβ40 in CHO cells over-expressing human APP695, 24 h incubation. The procedure, abridged:
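APP695 (London/Swedish)-overexpressing CHO cells were treated 48 h after seeding with serial dilutions from near 4 μM top concentration (0.4% DMSO) for 24 h at 37 °C. Secreted Aβ40 was quantified by sandwich ELISA relative to controls and fit to a 4-parameter IC50 model.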
On the technique in general: ELISA stands for enzyme-linked immunosorbent assay.

Bounds are passed on as bounds.

memapsin 2, sequence (P56817 46-501): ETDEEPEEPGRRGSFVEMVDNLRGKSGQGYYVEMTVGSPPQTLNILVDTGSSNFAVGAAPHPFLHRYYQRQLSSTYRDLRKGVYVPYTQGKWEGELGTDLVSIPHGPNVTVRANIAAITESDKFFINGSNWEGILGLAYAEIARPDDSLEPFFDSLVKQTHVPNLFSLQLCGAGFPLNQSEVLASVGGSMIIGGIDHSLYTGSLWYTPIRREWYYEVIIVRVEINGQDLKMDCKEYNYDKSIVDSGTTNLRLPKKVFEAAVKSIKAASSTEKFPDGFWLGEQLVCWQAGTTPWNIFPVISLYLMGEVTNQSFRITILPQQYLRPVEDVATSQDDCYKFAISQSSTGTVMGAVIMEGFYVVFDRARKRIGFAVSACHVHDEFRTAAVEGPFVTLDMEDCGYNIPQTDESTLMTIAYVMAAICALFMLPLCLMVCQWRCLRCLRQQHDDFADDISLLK

As for `Cc1coc([C@H]2CCCN2C(=O)c2cc(CF)cc(C(=O)N[C@@H](Cc3ccccc3)[C@H](O)CNCc3cccc(C(F)(F)F)c3)c2)n1` [Compound 82, 3-(fluoromethyl)-N-((2S,3R)-3-hydroxy-1-phenyl-4-(3-(trifluoromethyl)benzylamino)butan-2-yl)-5-((R)-2-(4-methyloxazol-2-yl)pyrrolidine-1-carbonyl)benzamide], the Ki at memapsin 2 is below 0.1 µM. The same molecule came in with an IC50 in test [1] below 0.3 µM.

Turning to `COc1cc(C(=O)N[C@@H](Cc2ccccc2)[C@H](O)CNCc2cncc(C(C)C)c2)cc(C(=O)N2CCC[C@@H]2c2nc(C)cs2)c1` [Compound 83, N-((2S,3R)-3-hydroxy-4-((5-isopropylpyridin-3-yl)methylamino)-1-phenylbutan-2-yl)-3-methoxy-5-((R)-2-(4-methylthiazol-2-yl)pyrrolidine-1-carbonyl)benzamide], the Ki at memapsin 2 is below 0.1 µM. The IC50 in test [1] is below 0.3 µM.

`Cc1cc(C(=O)N[C@@H](Cc2ccccc2)[C@H](O)CNCc2cccc(C(F)(F)F)c2)cc(C(=O)N2CCC[C@@H]2c2nc(C)co2)n1` [Compound 84, N-((2S,3R)-3-hydroxy-1-phenyl-4-(3-(trifluoromethyl)benzylamino)butan-2-yl)-2-methyl-6-((R)-2-(4-methyloxazol-2-yl)pyrrolidine-1-carbonyl)isonicotinamide]: the Ki on memapsin 2 was below 0.1 µM. Also, the IC50 in test [1] was below 0.3 µM.

In the case of `CNc1cc(CNC[C@@H](O)[C@H](Cc2ccccc2)NC(=O)c2cccc(C(=O)N3CCC[C@@H]3c3nc(C)cs3)c2)cc(C(F)(F)F)c1` [Compound 85, N-((2S,3R)-3-hydroxy-4-(3-(methylamino)-5-(trifluoromethyl)benzylamino)-1-phenylbutan-2-yl)-3-((R)-2-(4-methylthiazol-2-yl)pyrrolidine-1-carbonyl)benzamide], the Ki on memapsin 2 was below 0.1 µM. Also, the IC50 in test [1] was below 0.3 µM.

With `Cc1coc([C@H]2CCCN2C(=O)c2cc(C(=O)N[C@@H](Cc3ccccc3)[C@H](O)CNCc3cncc(C(C)C)c3)cc(-c3ncco3)c2)n1` [Compound 86, N-((2S,3R)-3-hydroxy-4-((5-isopropylpyridin-3-yl)methylamino)-1-phenylbutan-2-yl)-3-((R)-2-(4-methyloxazol-2-yl)pyrrolidine-1-carbonyl)-5-(oxazol-2-yl)benzamide], the Ki on memapsin 2 was below 0.1 µM. Moreover, the IC50 in test [1] is below 0.3 µM.

On to `Cc1coc([C@H]2CCCN2C(=O)c2cc(C(=O)N[C@@H](Cc3ccccc3)[C@H](O)CNCc3cccc(C(F)(F)F)c3)cc(-c3ncco3)c2)n1` [Compound 87, N-((2S,3R)-3-hydroxy-1-phenyl-4-(3-(trifluoromethyl)benzylamino)butan-2-yl)-3-((R)-2-(4-methyloxazol-2-yl)pyrrolidine-1-carbonyl)-5-(oxazol-2-yl)benzamide], for which the Ki at memapsin 2 was below 0.1 µM. In addition, in test [1], the IC50 is below 0.3 µM.

In the case of `Cc1csc([C@H]2CCCN2C(=O)c2cc(C(=O)N[C@@H](Cc3ccccc3)[C@H](O)CNCc3cccc(C(F)(F)F)c3)cc(-c3ccc(F)nc3)n2)n1` [Compound 88, 6′-fluoro-N-((2S,3R)-3-hydroxy-1-phenyl-4-(3-(trifluoromethyl)benzylamino)butan-2-yl)-6-((R)-2-(4-methylthiazol-2-yl)pyrrolidine-1-carbonyl)-2,3′-bipyridine-4-carboxamide], the Ki on memapsin 2 lay within 0.101 to 0.2 µM. In test [1], the IC50 was below 0.3 µM.

Take `COc1cc(C(=O)N[C@@H](Cc2ccccc2)[C@H](O)CNCc2cncc(C(C)C)c2)cc(C(=O)N2CCC[C@@H]2c2nc(C)co2)c1` [Compound 89, N-((2S,3R)-3-hydroxy-4-((5-isopropylpyridin-3-yl)methylamino)-1-phenylbutan-2-yl)-3-methoxy-5-((R)-2-(4-methyloxazol-2-yl)pyrrolidine-1-carbonyl)benzamide]: the Ki at memapsin 2 was below 0.1 µM. Also, the IC50 in test [1] was below 0.3 µM.

As usually defined, the IC50 is the concentration at which inhibition is half-maximal. Higher therefore signals weaker potency.

Values taken from US8299267B2, “(3-hydroxy-4-amino-butan-2-yl) -3- (2-thiazol-2-yl-pyrrolidine-1-carbonyl) benzamide derivatives and related compounds as beta-secretase inhibitors for treating” (CoMentis, Inc., priority 2007, dated 2012).
